Measurements as given in US20160084855A1, “Compositions and Methods for Modulation and Detection of Immune and Inflammatory Responses” (UNIVERSITY OF CONNECTICUT, priority 2013, published 2016).

Tests used:
[1] = test system: C57BL/6 (WT), TLR2−/−, IL-15−/− and IL-15Rα−/− mice with EAE; assay: EAE induced with MOG35-55 in CFA plus pertussis toxin; clinical grading; assay type: in vivo, mouse; conditions: for Mean Day of Onset of EAE / Mean Maximum Severity of EAE / Mean Incidence of disease: PE DHC; for Mean Maximum Severity of EAE: 20-day observation; for MDD (Mean Daily Disease) / CDI (cumulative disease index): PE DHC 250 ng single i.p. Day 0; for MDD (Mean Daily Disease): 20 days; for CDI (cumulative disease index): through Day 20
Procedure: […]. In addition, mice were injected intraperitoneally (i.p.) on Day 0 with either P. gingivalis lipid or the vehicle control, 70% ethanol (EtOH). EAE was scored as: Grade 1-tail paralysis; Grade 2-weakness of hind limbs with an altered gait; Grade 3-hind limb paralysis; Grade 4-front limb paralysis; Grade 5-death.
For treatment of mice, preweighed lipids were dissolved in 70% ethanol to achieve a final concentration of 125 ng/μl, and sonicated for 2.5 minutes immediately before injection into experimental animals. This preparation was also used for drying lipids onto tissue culture wells. For direct addition to cell cultures, the lipids were dissolved in culture medium at 125 ng/μl and sonicated for 2.5 minutes to produce a liposome preparation for administration to cells in culture.
The cumulative disease index (CDI) was obtained by summing the daily average disease scores through Day 20. A mean of these daily disease scores (Mean Daily Disease) (+/−SEM) was calculated based on the 20 days of observation. The Mean Daily Disease scores were compared using the Wilcoxin Signed Rank tests for two samples. Disease incidence frequencies were compared using Chi square analysis. Values for mean maximum severity of EAE were compared using the Wilcoxin Signed Rank test. Values for mean day of onset of EAE were compared using the Student's t-test. For analysis of spinal cord populations, percentages were compared using Student's t test. Bacterial fatty acid levels in brain lipid extracts for each treatment group were evaluated using least squares linear regression analysis that included calculation of correlation coefficients. For each dose of bacterial lipid administered, linear regression analysis compared the final EAE score with the mean bacterial fatty acid recovered per 0.5 mg of brain lipid extract. The mean bacterial fatty acid levels were calculated from three replicate brain lipid determinations.
EAE was induced in female C57BL/6 (WT) mice and these mice were also injected i.p. on Day 0 with either P. gingivalis lipids or the vehicle control, 70% ethanol (EtOH). To most effectively detect effects of P. gingivalis lipids in the development of autoimmunity, less severe EAE was induced by using CFA with […] concentrations of H37RA mycobacteria (500 μg/mouse). […] Component HPLC fractions of the TL were examined individually. […] FIG. 7 illustrates one representative experiment of six similar studies, in which 250 ng of PE DHC was administered to WT mice.
Mice deficient in either IL-15 (IL-15^−/− mice) or the IL-15 receptor α (IL-15Rα^−/− mice) are known to express very few identifiable NKT cells (Kennedy et al. “Reversible defects in natural killer and memory CD8 T cell lineages in interleukin 15-deficient mice,” J. Exp. Med. 191:771-780 (2000); Lodolce et al. “IL-15 receptor maintains lymphoid homeostasis by supporting lymphocyte homing and proliferation” Immunity 9:669-676 (1998). WT mice and either IL-15^−/− or IL-15Rα^−/− mice (both on a C57BL/6 background) were immunized for EAE and given a single i.p. injection of EtOH or PE DHC on Day 0. […] FIGS. 8 and 9 show representative experiments using IL-15^−/− and IL-15Rα^−/− mice.
TLR-2 deficient (TLR2^−/−) mice were immunized with the standard EAE-inducing MOG protocol and administered a single i.p. injection of either EtOH or PE DHC on Day 0.

[2] = test system: naïve CD4+CD25− T cells with T cell-depleted splenocytes (Tds); assay: In vitro generation of Th17 T cells; assay type: cell-based, mouse; conditions: PE DHC 20 μg/ml sonicated liposomes; WT or TLR2−/− Tds; anti-CD3, GM-CSF, TGF-β; 5 days
Procedure: CD4+CD25− T cells (Teff) were derived from WT mice using magnetic bead purification (Miltenyi Biotec, Auburn, Calif.). T cell-depleted splenocytes (Tds) were derived from WT or TLR2^−/− mice using magnetic bead purification followed by irradiation (2600R). Teff (0.25×10^6/well) and Tds (0.75×10^6/well) were cultured in 24-well plates with anti-CD3 antibody (1 μg/ml), GM-CSF (20 ng/ml) (Pierce Inc., Thermo Fisher Scientific, Rockford, Ill.) and recombinant TGF-β (2 ng/ml) (R&D). In addition, LPS (2 μg/ml), MMP (5 μg/ml) or P. gingivalis PE DHC (20 μg/ml of sonicated liposome preparations) were added to wells to stimulate the secretion of IL-6. Cultures were harvested after 5 days, stimulated in culture for 4 hrs with phorbol myristyl acetate and ionomycin and stained for Thy1.2, intracellular IFNγ, and IL-17 and analyzed by FACS after gating on Thy 1.2+ cells.
PE DHC's ability to induce IL-6 secretion was characterized by testing its ability to induce Th17 T cell generation from cultures of naïve CD4+ CD25-T cells activated in the presence of APCs (T cell depleted splenocytes; Tds) and TGF-β. See Bettelli et al. “T(H)-17 cells in the circle of immunity and autoimmunity” Nat. Immunol. 2007, 8:345-350.

[3] = IL-15Rα−/− mice that developed EAE
[4] = IL-15−/− mice that developed EAE
[5] = TLR2−/− mice that developed EAE
[6] = Wild Type mice that developed EAE

## phosphoethanolamine dihydroceramide [PE DHC]
[1]; [3]
  Mean Day of Onset of EAE: 13.8 days
  Mean Maximum Severity of EAE: 2.9
[1]; IL-15Rα−/− mice
  Mean Incidence of disease: 100%
  MDD (Mean Daily Disease): 0.9
  CDI (cumulative disease index): 18.7
[1]; IL-15−/− and IL-15Rα−/− mice
  CDI and mean daily disease compared with EtOH-treated mice: greater than a doubling
[1]; IL-15−/− and IL-15Rα−/− mice, single i.p. injection Day 0
  Effect on EAE: significantly enhanced EAE
[1]; [4]
  Mean Day of Onset of EAE: 13.0 days
  Mean Maximum Severity of EAE: 3.7
[1]; IL-15−/− mice
  Mean Incidence of disease: 90%
  MDD (Mean Daily Disease): 1.2
  CDI (cumulative disease index): 24.5
[1]; [5]
  Mean Day of Onset of EAE: 14.7 days
  Mean Maximum Severity of EAE: 2.9
[1]; TLR2−/− mice
  Mean Incidence of disease: 46.6%
  MDD (Mean Daily Disease): 0.4
  CDI (cumulative disease index): 8.3
[1]; TLR2−/− mice, single i.p. injection Day 0
  Effect on CDI and mean daily disease: did not mediate enhancement of CDI or mean daily disease
[1]; WT mice, 250 ng, cumulative results of six experiments
  CDI and mean daily disease compared with EtOH-treated mice: essentially a doubling
[1]; WT mice, 2.5 μg, 250 ng and 25 ng, 250 ng most efficient
  Effect on EAE disease: led to enhanced disease
[1]; WT mice, p=0.008
  Onset of disease compared to EtOH-treated mice: significantly earlier onset of disease
[1]; WT mice, single 250 ng i.p. injection on Day 0
  Effect on severity of EAE: consistently enhanced the severity of EAE
[1]; [6]
  Mean Day of Onset of EAE: 12.1 days
  Mean Maximum Severity of EAE: 3.6
[1]; Wild Type mice
  Mean Incidence of disease: 75%
  MDD (Mean Daily Disease): 1.0
  CDI (cumulative disease index): 19.8
[2]
  Generation of Th17 T cells: resulted in the generation of Th17 T cells in cultures containing WT but not TLR2^−/− Tds
